Type in all cases: biochemical
One experiment addresses human Factor Xa (Homo sapiens (Human), UniProt P00742). The experiment is described as follows: Human factor Xa chromogenic assay. Particulars: substrate S-2222, read-out: hfXa Ki.
The target of the next experiment is human thrombin (Homo sapiens (Human), UniProt P00734). Kind of experiment: Human thrombin assay. Particulars: substrate S-2238.
For the next experiment, the target named is prothrombinase (Homo sapiens (Human), UniProt P00742). The experiment is described as follows: Prothrombinase assay (thrombin generation). Particulars: human factor Xa with human platelets, prothrombin, substrate S-2238.
The next experiment concerns the target human trypsin (Homo sapiens, UniProt P07477). The experiment is described as follows: Human trypsin assay. Particulars: substrate S-2222.
The target of another experiment is rat Factor Xa (Rattus norvegicus (Rat), UniProt Q63207). The experiment is described as follows: Rat factor Xa chromogenic assay. Particulars: substrate S-2222, read-out: rfXa Ki.

The values that follow come from patent US9938272B2, “Hydrazine compound as blood coagulation factor Xa inhibitor” (NORTH CHINA PHARMACEUTICAL COMPANY., LTD., priority 2014, dated 2018).

Chain of prothrombinase (P00742 235-488): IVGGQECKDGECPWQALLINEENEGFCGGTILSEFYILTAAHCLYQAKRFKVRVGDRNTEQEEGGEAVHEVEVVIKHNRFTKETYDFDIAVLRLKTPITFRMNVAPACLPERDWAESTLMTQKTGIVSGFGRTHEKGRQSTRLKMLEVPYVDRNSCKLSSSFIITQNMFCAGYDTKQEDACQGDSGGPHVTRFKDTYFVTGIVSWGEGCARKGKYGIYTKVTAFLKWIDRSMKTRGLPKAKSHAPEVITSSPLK
Chain of prothrombinase (P00742 41-179): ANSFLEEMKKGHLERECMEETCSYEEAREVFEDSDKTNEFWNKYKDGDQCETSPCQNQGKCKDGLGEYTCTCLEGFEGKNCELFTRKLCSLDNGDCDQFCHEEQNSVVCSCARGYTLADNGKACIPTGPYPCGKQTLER
Chain of prothrombinase (P12259 29-737 partner): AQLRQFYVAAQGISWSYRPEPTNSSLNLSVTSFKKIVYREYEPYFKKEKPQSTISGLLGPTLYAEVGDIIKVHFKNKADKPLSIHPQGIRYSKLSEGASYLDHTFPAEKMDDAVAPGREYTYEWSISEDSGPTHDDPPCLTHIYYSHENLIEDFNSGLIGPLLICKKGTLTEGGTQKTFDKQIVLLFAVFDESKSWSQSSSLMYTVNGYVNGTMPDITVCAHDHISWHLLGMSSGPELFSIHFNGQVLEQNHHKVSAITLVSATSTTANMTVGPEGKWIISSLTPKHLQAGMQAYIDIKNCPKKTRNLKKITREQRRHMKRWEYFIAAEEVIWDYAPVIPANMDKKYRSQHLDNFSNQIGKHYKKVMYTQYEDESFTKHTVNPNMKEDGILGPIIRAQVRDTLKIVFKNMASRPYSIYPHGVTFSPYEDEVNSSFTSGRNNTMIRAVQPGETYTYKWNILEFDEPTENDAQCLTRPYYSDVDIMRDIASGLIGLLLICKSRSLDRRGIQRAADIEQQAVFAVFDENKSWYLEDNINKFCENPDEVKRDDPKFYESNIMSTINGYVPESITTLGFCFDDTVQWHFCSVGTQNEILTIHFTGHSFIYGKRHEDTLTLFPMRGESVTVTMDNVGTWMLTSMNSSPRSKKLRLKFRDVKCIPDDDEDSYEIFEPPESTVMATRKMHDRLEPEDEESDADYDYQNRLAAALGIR
Chain of prothrombinase (P12259 1574-2224 partner): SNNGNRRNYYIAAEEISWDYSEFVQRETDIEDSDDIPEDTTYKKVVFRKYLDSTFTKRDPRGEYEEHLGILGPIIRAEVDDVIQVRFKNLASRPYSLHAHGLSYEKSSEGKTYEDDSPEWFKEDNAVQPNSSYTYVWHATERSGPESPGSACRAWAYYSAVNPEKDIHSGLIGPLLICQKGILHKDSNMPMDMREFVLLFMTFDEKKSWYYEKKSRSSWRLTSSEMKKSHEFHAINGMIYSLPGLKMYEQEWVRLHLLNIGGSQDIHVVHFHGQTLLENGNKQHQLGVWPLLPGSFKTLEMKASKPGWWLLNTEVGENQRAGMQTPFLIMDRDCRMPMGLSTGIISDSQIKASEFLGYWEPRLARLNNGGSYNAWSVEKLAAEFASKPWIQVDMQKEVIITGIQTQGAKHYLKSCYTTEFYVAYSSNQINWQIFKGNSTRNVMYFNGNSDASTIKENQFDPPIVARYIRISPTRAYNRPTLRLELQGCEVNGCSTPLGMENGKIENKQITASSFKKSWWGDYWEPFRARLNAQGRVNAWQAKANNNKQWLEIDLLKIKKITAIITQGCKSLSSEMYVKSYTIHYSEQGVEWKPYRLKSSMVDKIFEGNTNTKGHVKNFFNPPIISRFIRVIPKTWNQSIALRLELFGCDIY
Chain of human Factor Xa (P00742 235-488): as the sequence (P00742 235-488) above
Chain of human Factor Xa (P00742 41-179): as the sequence (P00742 41-179) above
Chain of rat Factor Xa (Q63207 232-482): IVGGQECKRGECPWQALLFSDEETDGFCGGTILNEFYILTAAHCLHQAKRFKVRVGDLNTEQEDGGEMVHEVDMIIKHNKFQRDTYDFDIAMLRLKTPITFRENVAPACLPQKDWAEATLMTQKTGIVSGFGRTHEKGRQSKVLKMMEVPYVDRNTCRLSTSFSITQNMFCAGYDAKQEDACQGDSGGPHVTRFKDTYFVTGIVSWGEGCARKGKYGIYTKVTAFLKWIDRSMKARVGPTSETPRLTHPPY
Chain of rat Factor Xa (Q63207 41-180): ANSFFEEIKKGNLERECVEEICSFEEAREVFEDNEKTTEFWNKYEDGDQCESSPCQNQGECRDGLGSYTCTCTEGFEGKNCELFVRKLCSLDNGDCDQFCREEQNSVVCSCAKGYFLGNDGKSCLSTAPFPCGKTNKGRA

With `COc1ccc(-n2nc(C(N)=O)cc2C(=O)NC2CCN(N3CCOCC3=O)C2)cc1` (centres unmarked) [Example 19, 1-(4-Methoxyphenyl)-N^5-(1-(3-oxomorpholino)pyrrolidin-3-yl)-1H-pyrazole-3,5-dicarboxamide], the Ki on human Factor Xa is 50 to 1000 nM.
On to `N#Cc1cc(-n2nc(C(F)(F)F)c3c2C(=O)N(C2CCN(N4CCOCC4=O)CC2)CC3)ccc1F` [Example 25, 2-Fluoro-5-(7-oxo-6-(1-(3-oxomorpholino)piperidin-4-yl)-3-(trifluoromethyl)-4,5,6,7-tetra hydro-1H-pyrazolo[3,4-c]pyridin-1-yl)benzonitrile], for which the Ki on human Factor Xa was 50 to 1000 nM.
Take `Nc1noc2ccc(-n3nc(C(F)(F)F)c4c3C(=O)N(C3CCN(N5CCOCC5=O)CC3)CC4)cc12` [Example 26, 4-(4-(1-(3-Aminobenzo[d]isoxazol-5-yl)-7-oxo-3-(trifluoromethyl)-4,5-dihydro-1H-pyrazolo[3,4-c]pyridin-6(7H)-yl)piperidin-1-yl)morpholin-3-one]: the Ki on human thrombin is at least 1000 nM; at prothrombinase it was at most 10 nM; at human Factor Xa it was at most 10 nM; at human trypsin, at least 1000 nM; on rat Factor Xa, at most 10 nM.
For the compound `NC(=O)c1cccc(-n2nc(C(F)(F)F)c3c2C(=O)N(C2CCN(N4CCOCC4=O)CC2)CC3)c1` [Example 31, 3-(7-Oxo-6-(1-(3-oxomorpholino)piperidin-4-yl)-3-(trifluoromethyl)-4,5,6,7-tetrahydro-1H-pyrazolo[3,4-c]pyridin-1-yl)benzamide], the inhibitory constant (Ki) was at least 1000 nM at human thrombin; 10 to 50 nM at prothrombinase; at most 10 nM on human Factor Xa; at least 1000 nM on human trypsin; 10 to 50 nM on rat Factor Xa.
`COc1ccc(-n2nc(/C(N)=N\C#N)c3c2C(=O)N(C2CCN(N4CCCCC4=O)CC2)CC3)cc1` [Example 6, N′-Cyano-1-(4-methoxyphenyl)-7-oxo-6-(2′-oxo-[1,1′-bipiperidin]-4-yl)-4,5,6,7-tetrahydro-1H-pyrazolo[3,4-c]pyridine-3-carboximidamide]: the Ki at human thrombin is at least 1000 nM; at prothrombinase it was at most 10 nM; on human Factor Xa, at most 10 nM; on human trypsin, at least 1000 nM; at rat Factor Xa, 10 to 50 nM.
As to `COc1ccc(-n2nc(C(F)(F)F)c3c2C(=O)N(C2CCN(N4CCCCC4=O)CC2)CC3)cc1` [Example 2, 1-(4-Methoxyphenyl)-6-(2′-oxo-[1,1′-bipiperidin]-4-yl)-3-(trifluoromethyl)-5,6-dihydro-1H-pyrazolo[3,4-c]pyridin-7(4H)-one], the Ki was at least 1000 nM on human thrombin; at most 10 nM on prothrombinase; at most 10 nM at human Factor Xa; at least 1000 nM at human trypsin; at most 10 nM on rat Factor Xa.
In the case of `COc1ccc(-n2nc(C(N)=O)cc2C(=O)N(C2CC2)C2CCN(N3CCOCC3=O)CC2)cc1` [Example 18, N^5-Cyclopropyl-1-(4-methoxyphenyl)-N^5-(1-(3-oxomorpholino)piperidin-4-yl)-1H-pyrazole-3,5-dicarboxamide], the Ki on human Factor Xa lay within 50 to 1000 nM.
For `COc1ccc(-n2nc(C(N)=O)c3c2C(=O)N(C2C4CN(N5CCOCC5=O)CC42)CC3)cc1` (centres unmarked) [Example 13, 1-(4-Methoxyphenyl)-7-oxo-6-(3-(3-oxomorpholino)-3-azabicyclo[3.1.0]hexan-6-yl)-4,5,6,7-tetrahydro-1H-pyrazolo[3,4-c]pyridine-3-carboxamide], the Ki on human Factor Xa was 10 to 50 nM.
`NC(=O)c1cc(C(=O)NC2CCN(N3CCOCC3=O)CC2)n(C2CCOCC2)n1` [Example 20, N^5-(1-(3-Oxomorpholino)piperidin-4-yl)-1-(tetrahydro-2H-pyran-4-yl)-1H-pyrazole-3,5-dicarboxamide]: the Ki on human Factor Xa was 10 to 50 nM.
On to `COc1ccc(-n2nc(C(N)=O)c3c2C(=O)N(C2C4CN(N5CCCCC5=O)CC42)CC3)cc1` (centres unmarked) [Example 12, 1-(4-Methoxyphenyl)-7-oxo-6-(3-(2-oxopiperidin-1-yl)-3-azabicyclo[3.1.0]hexan-6-yl)-4,5,6,7-tetrahydro-1H-pyrazolo[3,4-c]pyridine-3-carboxamide], for which, at human Factor Xa, the Ki is 10 to 50 nM.
Turning to `O=C1c2c(c(C(F)(F)F)nn2-c2cc3ccccc3cc2F)CCN1C1CCN(N2CCOCC2=O)CC1` [Example 29, 4-(4-(1-(3-Fluoronaphthalen-2-yl)-7-oxo-3-(trifluoromethyl)-4,5-dihydro-1H-pyrazolo[3,4-c]pyridin-6(7H)-yl)piperidin-1-yl)morpholin-3-one], the inhibitory constant (Ki) at human thrombin is at least 1000 nM; at prothrombinase, at most 10 nM; on human Factor Xa, at most 10 nM; at human trypsin, at least 1000 nM; at rat Factor Xa, at most 10 nM.
As for `COc1ccc(-n2nc(C(N)=O)cc2C(=O)N(C)C2CCN(N3CCOCC3=O)CC2)cc1` [Example 16, 1-(4-Methoxyphenyl)-N^5-methyl-N^5-(1-(3-oxomorpholino)piperidin-4-yl)-1H-pyrazole-3,5-dicarboxamide], the Ki at human Factor Xa fell in the range of 50 to 1000 nM.
The same measure, in the same setting: for `NC(=O)c1cc(-n2nc(C(F)(F)F)c3c2C(=O)N(C2CCN(N4CCOCC4=O)CC2)CC3)ccc1F` [Example 32, 2-Fluoro-5-(7-oxo-6-(1-(3-oxomorpholino)piperidin-4-yl)-3-(trifluoromethyl)-4,5,6,7-tetra hydro-1H-pyrazolo[3,4-c]pyridin-1-yl)benzamide] the value was 50 to 1000 nM.
In the case of `COc1ccc(-n2nc(C(N)=O)cc2C(=O)NC2CCN(N3CCOCC3=O)CC2)cc1` [Example 15, 1-(4-Methoxyphenyl)-N^5-(1-(3-oxomorpholino)piperidin-4-yl)-1H-pyrazole-3,5-dicarboxamide], the Ki at prothrombinase and on human Factor Xa was 10 to 50 nM each time.
Consider `COc1ccc(-n2nc(C(F)(F)F)c3c2C(=O)N(C2CCN(N4CCCC4=O)CC2)CC3)cc1` [Example 3, 1-(4-Methoxyphenyl)-6-(1-(2-oxopyrrolidin-1-yl)piperidin-4-yl)-3-(trifluoromethyl)-5,6-dihydro-1H-pyrazolo[3,4-c]pyridin-7(4H)-one], for which the Ki on human thrombin was at least 1000 nM; at prothrombinase, at most 10 nM; on human Factor Xa, at most 10 nM; on human trypsin, at least 1000 nM; on rat Factor Xa it was at most 10 nM.
On to `CCN(C(=O)c1cc(C(N)=O)nn1-c1ccc(OC)cc1)C1CCN(N2CCOCC2=O)CC1` [Example 17, N^5-Ethyl-1-(4-methoxyphenyl)-N^5-(1-(3-oxomorpholino)piperidin-4-yl)-1H-pyrazole-3,5-dicarboxamide], for which, on human Factor Xa, the inhibitory constant (Ki) is 50 to 1000 nM.
`COc1ccc(-n2nc(C(N)=O)c3c2C(=O)N(N2CCC(N4CCCCC4=O)CC2)CC3)cc1` [Example 14, 1-(4-Methoxyphenyl)-7-oxo-6-(2-oxo-[1,4′-bipiperidin]-1′-yl)-4,5,6,7-tetrahydro-1H-pyrazolo[3,4-c]pyridine-3-carboxamide]: the Ki on human thrombin was at least 1000 nM; on prothrombinase, at most 10 nM; at human Factor Xa it was at most 10 nM; on human trypsin, at least 1000 nM; on rat Factor Xa, 50 to 1000 nM.
Consider `COc1ccc(-n2nc(C#N)c3c2C(=O)N(C2CCN(N4CCCCC4=O)CC2)CC3)cc1` [Example 5, 1-(4-Methoxyphenyl)-7-oxo-6-(2′-oxo-[1,1′-bipiperidin]-4-yl)-4,5,6,7-tetrahydro-1H-pyrazolo[3,4-c]pyridine-3-carbonitrile], for which the Ki at human thrombin is at least 1000 nM; on prothrombinase it was at most 10 nM; at human Factor Xa it was 10 to 50 nM; at human trypsin, at least 1000 nM; at rat Factor Xa it was 10 to 50 nM.
As for `COC1CCC(n2nc(C(N)=O)cc2C(=O)NC2CCN(N3CCOCC3=O)CC2)CC1` (centres unmarked) [Example 22, 1-(4-Methoxycyclohexyl)-N^5-(1-(3-oxomorpholino)piperidin-4-yl)-1H-pyrazole-3,5-dicarboxamide], the Ki at human Factor Xa was in the range of 50 to 1000 nM.
With `COc1ccc(-n2nc(C(N)=O)c3c2C(=O)N(C2CCN(C4CCNC4=O)CC2)CC3)cc1` (single isomer, unassigned) [Example 8a, 1-(4-Methoxyphenyl)-7-oxo-6-(1-(2-oxopyrrolidin-3-yl)piperidin-4-yl)-4,5,6,7-tetrahydro-1H-pyrazolo[3,4-c]pyridine-3-carboxamide], the values for the Ki at human Factor Xa and on rat Factor Xa were 50 to 1000 nM and 10 to 50 nM, respectively.
As for `N#Cc1cccc(-n2nc(C(F)(F)F)c3c2C(=O)N(C2CCN(N4CCOCC4=O)CC2)CC3)c1` [Example 27, 3-(7-Oxo-6-(1-(3-oxomorpholino)piperidin-4-yl)-3-(trifluoromethyl)-4,5,6,7-tetrahydro-1H-pyrazolo[3,4-c]pyridin-1-yl)benzonitrile], the Ki on human Factor Xa lay within 10 to 50 nM.
Still for that read-out and setting: as for `NC(=O)c1nn(-c2ccc(Cl)cc2)c2c1CCN(C1CCN(N3CCOCC3=O)CC1)C2=O` [Example 9, 1-(4-Chlorophenyl)-7-oxo-6-(1-(3-oxomorpholino)piperidin-4-yl)-4,5,6,7-tetrahydro-1H-pyrazolo[3,4-c]pyridine-3-carboxamide], the figure is 10 to 50 nM; as for `NC(=O)c1cc(-n2nc(C(F)(F)F)c3c2C(=O)N(C2CCN(N4CCOCC4=O)CC2)CC3)ccc1OC(F)F` [Example 33, 2-(Difluoromethoxy)-5-(7-oxo-6-(1-(3-oxomorpholino)piperidin-4-yl)-3-(trifluoromethyl)-4,5,6,7-tetrahydro-1H-pyrazolo[3,4-c]pyridin-1-yl)benzamide], 50 to 1000 nM; as for `N#Cc1cc(-n2nc(C(F)(F)F)c3c2C(=O)N(C2CCN(N4CCOCC4=O)CC2)CC3)ccc1OC(F)F` [Example 30, 2-(Difluoromethoxy)-5-(7-oxo-6-(1-(3-oxomorpholino)piperidin-4-yl)-3-(trifluoromethyl)-4,5,6,7-tetrahydro-1H-pyrazolo[3,4-c]pyridin-1-yl)benzonitrile], 50 to 1000 nM.
The same measure, in the same setting: as for `CS(=O)(=O)N1CCC(n2nc(C(N)=O)cc2C(=O)NC2CCN(N3CCOCC3=O)CC2)CC1` [Example 21, 1-(1-(Methylsulfonyl)piperidin-4-yl)-N^5-(1-(3-oxomorpholino)piperidin-4-yl)-1H-pyrazole-3,5-dicarboxamide], the figure is 50 to 1000 nM.
